Test results: the supplement of paper PMC13380429

Columns and labels:
Conditions in all cases: 72 h
Caco-2 [1] = experiment: cell viability relative to DMSO; higher = less toxic
Calu-3 [2] = experiment: as above
HepG2 [3] = experiment: as above
U2OS [4] = experiment: as above
Vero E6 [5] = experiment: as above
Calu-3 [6] = experiment: relative viability EC50 (midpoint between 100% and the lowest measured viability); higher = less toxic
U2OS [7] = experiment: as above
Vero E6 [8] = experiment: as above
Caco-2 [9] = experiment: drug sensitivity score (DSS) for viability; higher = more toxic; extreme values may be limits of the assay
Calu-3 [10] = experiment: as above
HepG2 [11] = experiment: as above
U2OS [12] = experiment: as above
Vero E6 [13] = experiment: as above
Caco-2 [14] = experiment: relative viability EC50 (midpoint between 100% and the lowest measured viability); higher = less toxic

| Structure (SMILES) | cell viability (Caco-2 [1]; 1 nM) [%] | cell viability (Caco-2 [1]; 10 nM) [%] | cell viability (Caco-2 [1]; 100 nM) [%] | cell viability (Caco-2 [1]; 1000 nM) [%] | cell viability (Caco-2 [1]; 10000 nM) [%] | cell viability (Calu-3 [2]; 1 nM) [%] | cell viability (Calu-3 [2]; 10 nM) [%] | cell viability (Calu-3 [2]; 100 nM) [%] | cell viability (Calu-3 [2]; 1000 nM) [%] | cell viability (Calu-3 [2]; 10000 nM) [%] | cell viability (HepG2 [3]; 1 nM) [%] | cell viability (HepG2 [3]; 10 nM) [%] | cell viability (HepG2 [3]; 100 nM) [%] | cell viability (HepG2 [3]; 1000 nM) [%] | cell viability (HepG2 [3]; 10000 nM) [%] | cell viability (U2OS [4]; 1 nM) [%] | cell viability (U2OS [4]; 10 nM) [%] | cell viability (U2OS [4]; 100 nM) [%] | cell viability (U2OS [4]; 1000 nM) [%] | cell viability (U2OS [4]; 10000 nM) [%] | cell viability (Vero E6 [5]; 1 nM) [%] | cell viability (Vero E6 [5]; 10 nM) [%] | cell viability (Vero E6 [5]; 100 nM) [%] | cell viability (Vero E6 [5]; 1000 nM) [%] | cell viability (Vero E6 [5]; 10000 nM) [%] | relative viability EC50 (Calu-3 [6]) [µM] | relative viability EC50 (U2OS [7]) [µM] | relative viability EC50 (Vero E6 [8]) [µM] | drug sensitivity score (Caco-2 [9]) | drug sensitivity score (Calu-3 [10]) | drug sensitivity score (HepG2 [11]) | drug sensitivity score (U2OS [12]) | drug sensitivity score (Vero E6 [13]) | relative viability EC50 (Caco-2 [14]) [µM] |
| --- | --- | --- | --- | --- | --- | --- | --- | --- | --- | --- | --- | --- | --- | --- | --- | --- | --- | --- | --- | --- | --- | --- | --- | --- | --- | --- | --- | --- | --- | --- | --- | --- | --- | --- |
| COc1cc(C(=O)OCCCN2CCCN(CCCOC(=O)c3cc(OC)c(OC)c(OC)c3)CC2)cc(OC)c1OC [dilazep] | 91.6 | 98.3 | 97.1 | 97.1 | 73.6 | 112 | 102 | 93.9 | 103 | 88.1 | 104 | 89.5 | 102 | 82.4 | 70.4 | 98.9 | 101 | 99.6 | 103 | 84.6 | 98.5 | 97.3 | 100 | 88.6 | 79.1 | > 10 | > 10 | > 10 | 1.5 | 0 | 3.3 | 0.2 | 1.8 |  |
| CC(C)(C)c1ccc(-c2nc3c(N4CCN(Cc5ccc6nccnc6c5)CC4)cccc3[nH]2)cc1 | 109 | 91.7 | 90.3 | 100 | 59.7 | 104 | 104 | 111 | 106 | 92.1 | 98.3 | 96.5 | 94.4 | 97.7 | 66.9 | 92.8 | 101 | 93.4 | 99.2 | 54.8 | 102 | 105 | 103 | 95.6 | 64.5 | > 10 |  |  | 2 | 0 | 1.9 | 2.4 | 2.4 |  |
| C=CC(=O)N1CCC(Oc2cc3c(Nc4ccc(Cl)c(Cl)c4F)ncnc3cc2OC)CC1 [poziotinib] | 88.4 | 86.5 | 80.9 | 85.2 | 60.1 | 67.5 | 31.5 | 30 | 27.4 | 18.5 | 105 | 97.3 | 101 | 93.9 | 63.3 | 95.1 | 94.4 | 91.1 | 88 | 19.3 | 86.4 | 60.5 | 58.3 | 45.6 | 8.8 | 0.0016 | 2 | 0.0784 | 6.4 | 34.8 | 2.8 | 6.5 | 21.1 |  |
| Cc1cc2c(cc1C(F)(F)F)N(C(=O)Nc1ccc(Oc3cccnc3C)nc1)CC2 | 97.3 | 101 | 104 | 97.1 | 91.2 | 96.4 | 98.8 | 96 | 104 | 80.6 |  |  |  |  |  | 101 | 106 | 95.8 | 105 | 95.4 |  |  |  |  |  | > 10 | > 10 |  | 0 | 0.4 |  | 0 |  | > 10 |
| O=[N+]([O-])c1cc([N+](=O)[O-])c(/C=C/c2ccc(Cl)c(Cl)c2)cc1/C=C/c1ccc(Cl)c(Cl)c1 | 91.4 | 97.2 | 89 | 102 | 86.3 | 100 | 98.5 | 87.2 | 97.6 | 95.9 |  |  |  |  |  | 68.7 | 102 | 94.8 | 110 | 94.1 | 103 | 105 | 101 | 102 | 97.3 | > 10 | > 10 | > 10 | 0.1 | 0 |  | 0 | 0 | > 10 |
| COc1ccccc1OC(=O)C(C)c1ccc(CC(C)C)cc1 (stereo not given) [metoxibutropate] | 95.5 | 104 | 90.2 | 93.1 | 96.7 | 118 | 105 | 104 | 97.7 | 107 |  |  |  |  |  | 101 | 103 | 97.8 | 99.3 | 100 | 99.2 | 102 | 96.9 | 98.7 | 100 | > 10 | > 10 | > 10 | 0 | 0 |  | 0 | 0 | > 10 |
| CC1(C)NC(=O)N(c2ccc([N+](=O)[O-])c(C(F)(F)F)c2)C1=O [nilutamide] | 102 | 107 | 117 | 107 | 90.5 | 106 | 100 | 94.7 | 104 | 92.7 |  |  |  |  |  | 96 | 104 | 98.2 | 94.8 | 103 | 106 | 97.1 | 104 | 94.8 | 96.8 | > 10 | > 10 | > 10 | 0 | 0 |  | 0 | 0 | > 10 |
| CS(=O)(=O)Nc1c(O)ccc2c1CCC[C@H]2C1=NCCN1 | 109 | 104 | 101 | 101 | 96.7 |  |  |  |  |  |  |  |  |  |  |  |  |  |  |  |  |  |  |  |  |  |  |  | 0 |  |  |  |  | > 10 |
| Nc1ccc(S(=O)(=O)Nc2ncccn2)cc1 [sulfadiazine] |  |  |  |  |  |  |  |  |  |  |  |  |  |  |  |  |  |  |  |  |  |  |  |  |  |  |  |  |  | 0.1 |  |  |  |  |
| Cc1ccc(Cl)c(Nc2ccccc2C(=O)O)c1Cl [meclofenamic-acid] | 97.6 | 103 | 95.8 | 102 | 91.2 | 98.2 | 101 | 88.1 | 109 | 91.8 |  |  |  |  |  | 99.3 | 103 | 97.1 | 105 | 96.2 | 105 | 93.7 | 102 | 101 | 96.5 | > 10 | > 10 | > 10 | 0 | 0 |  | 0 | 0 | > 10 |
| CCOC(=O)c1cc(C#N)c(N2CCC(C(=O)NS(=O)(=O)Cc3ccccc3)CC2)nc1C [AZD1283] | 98.4 | 94.3 | 101 | 95.5 | 97 | 96.2 | 104 | 112 | 97.2 | 104 |  |  |  |  |  | 95.7 | 100 | 105 | 91.2 | 101 | 103 | 106 | 100 | 104 | 99.5 | > 10 | > 10 | > 10 | 0 | 0 |  | 0 | 0 | > 10 |
| Nn1cnc2cc3ccccc3cc2c1=O [centazolone] |  |  |  |  |  |  |  |  |  |  |  |  |  |  |  |  |  |  |  |  |  |  |  |  |  |  |  |  |  | 0 | 0 |  | 0 |  |
| COc1cc(N)c(Cl)cc1C(=O)OCCCN1CCCCC1 | 116 | 108 | 104 | 98.3 | 107 | 106 | 102 | 93.5 | 114 | 104 |  |  |  |  |  | 101 | 94.9 | 98.1 | 104 | 102 | 106 | 104 | 107 | 104 | 99.7 | > 10 | > 10 | > 10 | 0 | 0 |  | 0 | 0 | > 10 |
| COc1ccc2[nH]c([S@@+]([O-])Cc3ncc(C)c(OC)c3C)nc2c1 [esomeprazole] | 97.2 | 101 | 101 | 102 | 83.1 | 98.3 | 108 | 110 | 96.9 | 103 |  |  |  |  |  | 102 | 102 | 95 | 102 | 95.8 | 93.8 | 108 | 100 | 97.8 | 107 | > 10 | > 10 | > 10 | 0.3 | 0 |  | 0 | 0 | > 10 |
| CCC1(C)CC(=O)NC1=O (stereo not given) [ethosuximide] | 87 | 77.2 | 88.5 | 84.8 | 84.6 | 110 | 93.6 | 89.8 | 107 | 94 |  |  |  |  |  | 102 | 93.4 | 102 | 99.6 | 100 | 99.2 | 106 | 101 | 103 | 96.6 | > 10 | > 10 | > 10 | 0 | 0 |  | 0 | 0 | > 10 |
| C[C@H](N/C(=N/C#N)Nc1cccc2ncccc12)c1ccccc1 | 101 | 112 | 104 | 97.8 | 98.6 | 97 | 102 | 107 | 103 | 94.8 |  |  |  |  |  | 108 | 102 | 99.1 | 109 | 101 |  |  |  |  |  | > 10 | > 10 |  | 0 | 0 |  | 0 |  | > 10 |
| CC1=C(/C=C/C(C)=C/C=C/C(C)=C/CO)C(C)(C)CCC1 [retinol] | 108 | 89.4 | 96.7 | 97.8 | 93.2 | 90.6 | 103 | 101 | 91.7 | 99.5 |  |  |  |  |  | 102 | 96.9 | 102 | 96.8 | 103 |  |  |  |  |  | > 10 | > 10 |  | 0 | 0 |  | 0 |  | > 10 |
| CCCCCCCCCCCCCCOc1ccc(C(=O)O)o1 [KD-023] | 95 | 92.9 | 105 | 92.5 | 82.5 |  |  |  |  |  | 99.8 | 103 | 103 | 105 | 69.9 | 97.4 | 97.4 | 101 | 95.8 | 103 | 102 | 102 | 100 | 99 | 78.4 |  | > 10 | > 10 | 1.1 |  | 1 | 0 | 0.8 | > 10 |
| Cn1c([N+](=O)[O-])cnc1COC(N)=O [ronidazole] | 89.2 | 93.5 | 107 | 95.2 | 101 | 95.6 | 98.6 | 95.3 | 92 | 103 |  |  |  |  |  | 96.4 | 97.9 | 99.8 | 97.9 | 99.5 | 98 | 103 | 93.7 | 98.7 | 108 | > 10 | > 10 | > 10 | 0 | 0 |  | 0 | 0 | > 10 |
